As a reminder, the IC50 is the point on the concentration scale where inhibition reaches its midpoint. A higher IC50 goes with a need for much substance.

From patent publication US7176199B2, “Aryl-substituted alicyclic compound and medical composition comprising the same” (Dainippon Pharmaceutical Co., Ltd., priority 2001, dated 2007) come the findings set out here.

In one experiment the target is T1, αIIbβ3 integrin (Homo sapiens, UniProt P05106+P08514).
T1 construct: from tissue; host or cells: human platelets (Triton X-100 lysate)
The experiment is described as follows: Assay for the inhibition of αIIbβ3 integrin binding (fibrinogen as ligand, integrin captured from platelet lysate). The settings on record: inhibition of specific binding of biotinylated fibrinogen to αIIbβ3 integrin from human platelet lysate. The procedure:
Experiment 2: Assay for the Inhibition of αIIbβ3 Integrin Binding
This experiment was carried out based on the method described in Thromb. Haemostasis, 75, 339 (1996), Blood, 93, 2559 (1999), using fibrinogen as a ligand. According to the method described in the above literatures, assay for the inhibition of αIIbβ3 integrin binding can be achieved by capturing αIIbβ3 integrin from platelet lysate with the use of an activated antibody against αIIbβ3 integrin.
Human platelets were isolated in a conventional manner. At 25° C., the isolated platelets were adjusted to a concentration of 1.25×10^9/ml with TBS+[50 mM Tris-HCl (pH 7.4), 150 mM NaCl, 2 mM CaCl2], and then ⅛ volume of TBS^+ containing 2 mM leupepsin and 10 mM PMSF was added and stirred gently. Nest, 1/9 volume of TBS+ containing 10% Triton X-100 was added and stirred gently. After standing on ice for 30 minutes, a platelet lysate was prepared from the mixture by discarding the insoluble fraction with centrifugation (10,000 g, 15 minutes).
Anti-mouse IgG goat antibody (Jackson Immunoresearch Laboratories, Inc., USA) was adjusted to a concentration of 5 μg/ml with sodium carbonate buffer (pH 9.6) and added to plates at 50 μl/well. The plate was left at 4° C. overnight for immobilization of the antibody. All subsequent steps were done at 25° C., and the procedure for each well was described hereafter.
The well was washed once with TBS^+, and then 200 μl of TBS^+ containing 5% BSA was added to the well and left for one hour for blocking. The well was washed with a reaction solution (TBS^+ containing 0.1% BSA and 0.05% Triton X-100) 4 times, and then 50 μl of anti-human αIIbβ3 integrin activated monoclonal antibody (TAKARA SHUZO CO., LTD, Japan, PT25-2 strain) adjusted to 5 μg/ml with the reaction solution was added to the well. After one hour reaction, the well was washed 4 times with the reaction solution, and 50 μl of the platelet lysate diluted 1:2 with the reaction solution was added to the well. Following 2 hours reaction, the well was washed 4 times with the reaction solution, and 50 μl of the reaction solution was added to the well. Subsequently, 25 μl of a test compound solution adjusted to each concentration with the reaction solution was added, and then mixed with 25 μl of biotinylated fibrinogen (Calbiochem, Germany) adjusted to 2 μg/ml with the reaction solution. The mixture was reacted for one hour. After washing 4 times with the reaction solution, 100 μl of alkaline phosphatase-labeled streptoavidin (Gibco BRL, USA) diluted 1:500 with the reaction solution was added to the well. Following 30 minutes reaction, the well was washed 4 times with the wash solution. Next, 50 μl of the NaDPH solution (Invitrogen, former company name: Gibco BRL, USA) was added and reacted for 20 minutes, and then 50 μl of an amplification solution containing diaphorase and alcohol dehydrogenase (Invitrogen, former company name: Gibco BRL, USA) was added. Color was developed for 20 minutes and the reaction was stopped by adding 50 μl of 0.5 M sulfuric acid.
The absorbance at 495 nm was measured with a plate reader to obtain a total binding. To obtain a nonspecific binding, EDTA adjusted to 20 mM with the reaction solution was added instead of the test compound solution. A specific binding was calculated by subtracting the nonspecific binding from the total binding.

In another experiment the target is αvβ3 integrin (Homo sapiens, UniProt P05106+P06756). The experiment is described as follows: Assay for the inhibition of αvβ3 integrin binding (vitronectin as ligand). Details: purchased Chemicon International, Inc., USA. The settings on record: inhibition of specific binding of biotinylated human vitronectin to immobilized αvβ3 integrin. As for the experimental part:
Experiment 1: Assay for the Inhibition of αvβ3 integrin binding
This experiment was carried out based on the method described in […].
Purified human αvβ3 integrin (Chemicon International, Inc., USA) was adjusted to a concentration of 1 μg/ml with TBS^++ [20 mM Tris-HCl (pH 7.4), 150 mM NaCl, 1 mM CaCl2, 1 mM MgCl2], and the diluted solution was added to plates (Labsystems, Finland) at 50 μl/well. The plate was left at 4° C. overnight for immobilization of the αvβ3 integrin. All subsequent steps were done at 25° C., and the procedure for each well was described hereafter.
The solution was discarded, and then 200 μl of TBS^++ containing 1% BSA (Wako Pure Chemical Industries, Ltd., Japan) was added to the well and left for one hour for blocking. The well was washed with a wash solution (TBS^++ containing 0.01% Tween 20) 4 times, and 50 μl of a reaction solution (TBS^++ containing 0.1% BSA and 0.01% Tween 20) was added to the well. Subsequently, 25 μl of a test compound solution adjusted to each concentration with the reaction solution was added, and then mixed with 25 μl of biotinylated (Amersham Pharmacia Biotech, UK) human vitronectin (Gibco BRL, USA) adjusted to 0.4 μg/ml with the reaction solution. The mixture was reacted for 2 hours. After washing 4 times with the wash solution, 100 μl of peroxidase-labeled streptoavidin (Amersham Pharmacia Biotech, UK) diluted 1:500 with the reaction solution was added to the well. Following 30 minutes reaction, the well was washed 4 times with the wash solution, and 100 μl of a TMB substrate solution (Bio-Rad Laboratories, USA) was added to the well. Color was developed for 20 minutes and the reaction was stopped by adding 100 μl of 0.5 M sulfuric acid.
The absorbance at 450 nm was measured with a plate reader (Molecular Devices, USA) to obtain a total binding. To obtain a nonspecific binding, EDTA adjusted to 20 mM with the reaction solution was added instead of the test compound solution. A specific binding was calculated by subtracting the nonspecific binding from the total binding.

Molecules are shown by their SMILES. A value given as a limit tells only on which side of the number the result lay.

T1 sequence (P08514 32-887 limits assumed): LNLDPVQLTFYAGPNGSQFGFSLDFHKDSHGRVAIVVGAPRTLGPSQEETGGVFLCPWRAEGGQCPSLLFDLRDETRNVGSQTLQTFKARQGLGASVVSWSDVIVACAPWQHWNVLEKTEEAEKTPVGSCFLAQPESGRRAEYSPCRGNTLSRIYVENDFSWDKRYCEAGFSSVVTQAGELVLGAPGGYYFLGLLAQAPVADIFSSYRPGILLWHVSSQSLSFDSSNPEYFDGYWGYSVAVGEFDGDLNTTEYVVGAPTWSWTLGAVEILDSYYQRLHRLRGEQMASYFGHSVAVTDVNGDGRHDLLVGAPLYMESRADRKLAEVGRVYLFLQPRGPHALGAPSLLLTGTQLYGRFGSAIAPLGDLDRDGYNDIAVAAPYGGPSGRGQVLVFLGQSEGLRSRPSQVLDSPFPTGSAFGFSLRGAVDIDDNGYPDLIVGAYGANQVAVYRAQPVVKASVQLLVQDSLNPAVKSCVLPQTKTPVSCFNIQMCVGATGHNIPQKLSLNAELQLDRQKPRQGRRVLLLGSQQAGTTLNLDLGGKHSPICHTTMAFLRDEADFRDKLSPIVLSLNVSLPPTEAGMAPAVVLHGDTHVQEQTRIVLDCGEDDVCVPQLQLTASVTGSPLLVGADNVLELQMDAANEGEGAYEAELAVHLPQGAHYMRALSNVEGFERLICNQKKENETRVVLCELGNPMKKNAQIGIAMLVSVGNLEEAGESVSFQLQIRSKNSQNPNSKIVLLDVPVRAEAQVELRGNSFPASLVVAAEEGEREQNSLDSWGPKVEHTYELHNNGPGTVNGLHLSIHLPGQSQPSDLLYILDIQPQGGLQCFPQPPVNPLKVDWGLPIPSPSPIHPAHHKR
T1 sequence (P08514 891-1039 partner limits assumed): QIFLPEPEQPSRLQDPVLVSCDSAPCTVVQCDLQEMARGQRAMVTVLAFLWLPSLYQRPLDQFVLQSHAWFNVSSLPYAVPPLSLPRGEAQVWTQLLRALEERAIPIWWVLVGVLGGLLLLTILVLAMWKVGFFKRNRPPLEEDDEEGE
T1 sequence (P05106 27-788): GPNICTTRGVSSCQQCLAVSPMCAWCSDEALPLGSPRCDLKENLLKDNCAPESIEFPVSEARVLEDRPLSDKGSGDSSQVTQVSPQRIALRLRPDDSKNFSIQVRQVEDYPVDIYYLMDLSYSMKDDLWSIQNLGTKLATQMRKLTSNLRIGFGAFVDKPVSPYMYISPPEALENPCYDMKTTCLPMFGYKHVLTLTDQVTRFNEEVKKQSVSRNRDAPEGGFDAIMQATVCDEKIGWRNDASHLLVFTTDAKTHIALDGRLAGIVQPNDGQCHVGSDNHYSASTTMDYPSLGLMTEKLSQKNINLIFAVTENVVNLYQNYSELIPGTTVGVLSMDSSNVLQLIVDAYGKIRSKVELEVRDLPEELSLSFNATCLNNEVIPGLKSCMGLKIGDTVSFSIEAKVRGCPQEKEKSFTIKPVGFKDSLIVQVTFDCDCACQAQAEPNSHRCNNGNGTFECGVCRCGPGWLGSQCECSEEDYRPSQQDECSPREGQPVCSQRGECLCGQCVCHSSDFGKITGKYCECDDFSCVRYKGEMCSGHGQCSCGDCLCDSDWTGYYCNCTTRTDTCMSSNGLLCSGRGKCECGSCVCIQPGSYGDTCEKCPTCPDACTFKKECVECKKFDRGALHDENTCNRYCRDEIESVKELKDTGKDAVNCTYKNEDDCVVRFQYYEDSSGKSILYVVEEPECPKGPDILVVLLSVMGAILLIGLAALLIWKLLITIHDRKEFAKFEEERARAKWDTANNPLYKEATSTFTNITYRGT
αvβ3 integrin, sequence (P06756 31-889 limits assumed): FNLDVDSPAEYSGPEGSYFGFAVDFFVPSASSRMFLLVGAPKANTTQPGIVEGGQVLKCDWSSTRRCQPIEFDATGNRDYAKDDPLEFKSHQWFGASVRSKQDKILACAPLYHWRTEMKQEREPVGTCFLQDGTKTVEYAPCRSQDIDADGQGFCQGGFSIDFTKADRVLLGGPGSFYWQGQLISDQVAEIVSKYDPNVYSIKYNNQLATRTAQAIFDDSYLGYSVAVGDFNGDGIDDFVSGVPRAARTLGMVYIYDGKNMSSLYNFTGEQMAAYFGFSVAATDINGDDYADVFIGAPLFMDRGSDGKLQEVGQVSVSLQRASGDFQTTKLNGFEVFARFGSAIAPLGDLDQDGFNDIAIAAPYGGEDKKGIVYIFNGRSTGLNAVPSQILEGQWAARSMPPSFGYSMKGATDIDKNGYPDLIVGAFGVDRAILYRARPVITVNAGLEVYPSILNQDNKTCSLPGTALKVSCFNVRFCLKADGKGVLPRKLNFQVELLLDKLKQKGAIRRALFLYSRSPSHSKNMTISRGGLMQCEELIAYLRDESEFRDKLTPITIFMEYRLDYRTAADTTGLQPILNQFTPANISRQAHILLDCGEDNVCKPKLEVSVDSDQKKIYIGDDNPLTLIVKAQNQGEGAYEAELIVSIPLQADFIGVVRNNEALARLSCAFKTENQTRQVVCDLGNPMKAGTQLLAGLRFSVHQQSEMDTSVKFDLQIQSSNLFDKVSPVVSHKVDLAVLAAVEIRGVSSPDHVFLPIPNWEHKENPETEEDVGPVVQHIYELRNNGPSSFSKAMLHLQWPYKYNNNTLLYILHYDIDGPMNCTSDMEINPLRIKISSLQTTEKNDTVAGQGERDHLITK
αvβ3 integrin, sequence (P06756 891-1048 partner limits assumed): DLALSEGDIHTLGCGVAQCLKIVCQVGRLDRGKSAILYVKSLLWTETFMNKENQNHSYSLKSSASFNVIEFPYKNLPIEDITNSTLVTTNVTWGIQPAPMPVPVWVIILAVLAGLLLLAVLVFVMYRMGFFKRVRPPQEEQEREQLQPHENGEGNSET
αvβ3 integrin, sequence (P05106 27-788): as the sequence (P05106 27-788) above

Take `CCOC(=O)N[C@@H](CNC(=O)C1CCN(c2cccc(NC3=NCCCN3)c2)CC1)C(=O)O` [Ex. 86, (2S)-2-ethoxycarbonylamino-3-[[1-[3-(1,4,5,6-tetrahydropyrimidin-2-yl)aminophenyl]piperidin-4-yl]carbonylamino]propanoic acid]: the IC50 on αIIbβ3 integrin is 380 nM; at αvβ3 integrin, 0.094 nM.
The like results for `CC(C)COC(=O)N[C@@H](CNC(=O)C1CCN(c2cccc(NC3=NCC(C)(C)CN3)c2)CC1)C(=O)O` [Ex. 18, (2S)-2-isobutoxycarbonylamino-3-[[1-[3-(5,5-dimethyl-1,4,5,6-tetrahydropyrimidin-2-yl)aminophenyl]piperidin-4-yl]carbonylamino]-propanoic acid] were, in that order, 310 nM and 0.13 nM.
`O=C(N[C@@H](CNC(=O)C1CCN(c2cc(F)cc(NC3=NCCCN3)c2)CC1)C(=O)O)OCc1ccccc1` [Ex. 156, (2S)-2-benzyloxycarbonylamino-3-[[1-[5-fluoro-3-(1,4,5,6-tetrahydropyrimidin-2-yl)aminophenyl]piperidin-4-yl]carbonylamino]-propanoic acid]: the IC50 on αIIbβ3 integrin is 43 nM; at αvβ3 integrin it was 0.055 nM.
Taken in the same sequence, the figures for `O=C(N[C@@H](CNC(=O)N1CCN(c2cccc(NC3=NCCCN3)c2)CC1)C(=O)O)OCc1ccccc1` [Ex. 145, (2S)-2-benzyloxycarbonylamino-3-[[4-[3-(1,4,5,6-tetrahydropyrimidin-2-yl)aminophenyl]piperazin-1-yl]carbonylamino]-propanoic acid] were 380 nM and 0.041 nM.
The like results for `Cc1ccc(N2CCC(C(=O)NC[C@H](NC(=O)OCc3ccccc3)C(=O)O)CC2)cc1NC1=NCCCN1` [Ex. 153, (2S)-2-benzyloxycarbonylamino-3-[[1-[4-methyl-3-(1,4,5,6-tetrahydropyrimidin-2-yl)aminophenyl]piperidin-4-yl]-carbonylamino]propanoic acid] were, in that order, 94 nM and 0.14 nM.
Taken in the same sequence, the figures for `CCCCCCCCCCOC(=O)N[C@@H](CNC(=O)C1CCN(c2cccc(NC3=NCCCN3)c2)CC1)C(=O)O` [Ex. 90, (2S)-2-decyloxycarbonylamino-3-[[1-[3-(1,4,5,6-tetrahydropyrimidin-2-yl)aminophenyl]piperidin-4-yl]carbonylamino]propanoic acid] were 260 nM and 0.23 nM.
Consider `O=C(N[C@@H](CCC(=O)N1CCN(c2cccc(NC3=NCCCCN3)c2)CC1)C(=O)O)OCc1ccccc1` [Ex. 123], for which the results for the IC50 on αIIbβ3 integrin and on αvβ3 integrin were 1600 nM and 0.056 nM, respectively.
For the compound `O=C(N[C@@H](CNC(=O)C1CCN(c2cc(NC3=NCC(F)CN3)ccn2)CC1)C(=O)O)OCc1ccccc1` (stereo partly drawn) [Ex. 160, (2S)-2-benzyloxycarbonylamino-3-[[1-[4-(5-fluoro-1,4,5,6-tetrahydropyrimidin-2-yl)aminopyridin-2-yl]piperidin-4-yl]carbonylamino]-propanoic acid], the IC50 on αIIbβ3 integrin was found to be 67 nM; at αvβ3 integrin it was 0.046 nM.
Taken in the same sequence, the figures for `CCCCCCOC(=O)N[C@@H](CCC(=O)N1CCN(c2cccc(NC3=NCCCN3)c2)CC1)C(=O)O` [Ex. 137, (2S)-2-hexyloxycarbonylamino-5-[4-[3-(1,4,5,6-tetrahydropyrimidin-2-yl)aminophenyl]piperazin-1-yl]-5-oxopentanoic acid] were 880 nM and 0.28 nM.
Regarding `O=C(N[C@@H](CNC(=O)C1CCN(c2cccc(NC3=NCCCCN3)c2)CC1)C(=O)O)OCc1ccccc1` [Ex. 10, (2S)-2-benzyloxycarbonylamino-3-[[1-[3-(1H-4,5,6,7-tetrahydro-1,3-diazepin-2-yl)aminophenyl]piperidin-4-yl]carbonylamino]propanoic acid], the IC50 amounted to 74 nM on αIIbβ3 integrin and 0.075 nM at αvβ3 integrin.
Taken in the same sequence, the figures for `O=C(N[C@@H](CNC(=O)C1CCN(c2cccc(NC3=NCCCN3)c2)CC1)C(=O)O)OCc1ccccc1` [Ex. 2, (2S)-2-benzyloxycarbonylamino-3-[[1-[3-(1,4,5,6-tetrahydropyrimidin-2-yl)aminophenyl]piperidin-4-yl]carbonylamino]propanoic acid] were 43 nM and 0.06 nM.
Taken in the same sequence, the figures for `CCCCCCOC(=O)N[C@@H](CCC(=O)N1CCN(c2cccc(NC3=NCC(F)CN3)c2)CC1)C(=O)O` (stereo partly drawn) [Ex. 130, (2S)-2-hexyloxycarbonylamino-5-[4-[3-(5-fluoro-1,4,5,6-tetrahydropyrimidin-2-yl)aminophenyl]piperazin-1-yl]-5-oxopentanoic acid] were more than 1000 nM and 0.058 nM.
Taken in the same sequence, the figures for `Cc1cc(N2CCC(C(=O)NC[C@H](NC(=O)OCc3ccccc3)C(=O)O)CC2)nc(NC2=NCCCN2)n1` [Ex. 150, (2S)-2-benzyloxycarbonylamino-3-[[1-[2-(1,4,5,6-tetrahydropyrimidin-2-yl)amino-6-methylpyrimidin-4-yl]piperidin-4-yl]-carbonylamino]propanoic acid] were 52 nM and 0.081 nM.
`O=C(NCc1ccccc1)Nc1cccc(N2CCC(C(=O)NC[C@H](NC(=O)OCc3ccccc3)C(=O)O)CC2)c1` [Ex. 30, (2S)-3-{[1-[3-(benzylaminocarbonyl)aminophenyl]-piperidin-4-yl}carbonylamino]-2-(benzyloxycarbonylamino)propanoic acid]: the IC50 at αIIbβ3 integrin was found to be 4600 nM; on αvβ3 integrin, 5.1 nM.
The like results for `O=C(C[C@H](NC(=O)OCc1ccccc1)C(=O)O)NC1CCN(c2cccc(NC3=NCCCN3)c2)CC1` [Ex. 146, (2S)-2-benzyloxycarbonylamino-4-[[1-[3-(1,4,5,6-tetrahydropyrimidin-2-yl)aminophenyl]piperidin-4-yl]amino]-4-oxobutanoic acid] were, in that order, 4200 nM and 1 nM.
The like results for `COc1ccc(NC2=NCCCN2)cc1N1CCC(C(=O)NC[C@H](NC(=O)OCc2ccccc2)C(=O)O)CC1` [Ex. 152, (2S)-2-benzyloxycarbonylamino-3-[[1-[2-methoxy-5-(1,4,5,6-tetrahydropyrimidin-2-yl)aminophenyl]piperidin-4-yl]carbonylamino]propanoic acid] were, in that order, 13 nM and 0.055 nM.
